# Results: patent publication US20070197632A1, “Aminocyclohexyl ether compounds and uses thereof” (Cardiome Pharma Corp, priority 2003, published 2007)
# How the values were obtained:
# conscious rats = details: rat, in vivo, iv
# [1] = tested on: sustained AF maintained during continuous vagal nerve stimulation; test: Canine vagal-AF model; type: in vivo, dog; details: anesthetized dogs, IV
# Method: St.-Georges et al., 1997). Dogs are ventilated mechanically with room air supplemented with oxygen via an endotracheal tube at 20 to 25 breaths/minute with a tidal volume obtained from a nomogram. […] Catheters are inserted into the femoral artery for blood pressure recording and blood gas measurement, and into both femoral veins for drug administration and venous sampling. […] Body temperature is maintained at 37-40° C. with a heating blanket. The heart is exposed via a medial thoracotomy and a pericardial cradle is created. […] Drug effects to terminate sustained AF maintained during continuous vagal nerve stimulation are assessed. […] The vagal stimulation voltage is adjusted under control conditions, and then readjusted after each treatment to maintain the same bradycardic effect. […] Diastolic threshold and ERP are determined in duplicate and averaged to give a single value. […] The interval between the stimulus artefact and the peak of the local electrogram is measured as an index of conduction velocity. […] The stimulus voltage-heart rate relationship for vagal nerve stimulation is determined under control conditions in most experiments. […] After the termination of AF, the diastolic threshold and ERP of the atrium and ventricle are determined. […] Group data are expressed as the mean±SEM. […]
SMILES,convulsion dose (conscious rats) [µmol/kg/min],Median dose required for termination of AF [1] [µmol/kg],Mean dose required for termination of AF ([1]; mean±SEM) [µmol/kg]
"COc1ccc(CCO[C@H]2CCCC[C@@H]2N2CC[C@H](O)C2)cc1OC.Cl [Compound 7, (1S,2S)-2-[(3S)-Hydroxypyrrolidinyl]-1-(3,4-dimethoxyphenethoxy)-cyclohexane monohydrochloride]",64,–,–
O=C(NCC1CCCCN1)c1cc(OCC(F)(F)F)ccc1OCC(F)(F)F (stereo not drawn) [Flecainide],–,2.5,4 ± 2
